# Patent US20160354427A1, “METHODS FOR INDUCING EPITHELIAL CANCER CELL SENESCENCE” (Institute for Cancer Research d/b/a The Research Institute …, priority 2011, published 2016)
# Assays:
# [1] = tested on: Wnt5a protein in PEO1 cells; test: Wnt5a protein expression by immunoblotting after Aza-C treatment; assay type: cell-based, human; settings: 5 μmol/L Aza-C for 4 days, vs control
# Source text: (§1) FIGS. 2A-2C show promoter DNA CpG island hypermethylation contributes to Wnt5a downregulation in human EOC cells. […] Locations of exon 1 (open rectangle), CpG sites (vertical lines) and coding exons (filled rectangle), and the transcription start site (curved arrow) are indicated. Flat arrows indicate the positions of primers used for PCR amplification, and the size of PCR product is also indicated. […] Mean of 3 independent experiments with SD.
# (§2) RT-PCR, qRT-PCR and immunoblotting. RNA from cultured primary HOSE or human EOC cells was isolated using Trizol (Invitrogen) according to manufacture's instruction. For qRT-PCR, Trizol®—(Molecular Research Center, Inc., Cincinnati, Ohio) isolated RNA was further purified using a RNeasy® mini kit (Qiagen GmbH, Germany). The Wnt5a primers used for qRT-PCR were purchased from Applied Biosystems. Housekeeping β-2-microglobulin or β-actin mRNA expression was used to normalize the Wnt5a mRNA expression. Soluble β-catenin was extracted using a buffer that consisting of 10 mM pH 7.5 Tris-HCl, 0.05% NP-40, 10 mM NaCl, 3 mM MgCl2, 1 mM EDTA and proteinase inhibitors (Roche). The following antibodies were used for immunoblotting: goat anti-Wnt5a (R&D systems), mouse anti-GAPDH (Millipore/Chemicon), mouse anti-β-catenin (BD Bioscience), anti-p53, mouse anti-Rb and mouse anti-β-actin (Sigma Chemical Co.), and rabbit anti-pRBpS780 (Cell Signaling).
# Wnt5a mRNA in PEO1 cells = test: Wnt5a mRNA expression by qRT-PCR after Aza-C treatment; assay type: cell-based, human; settings: 5 μmol/L Aza-C for 4 days, vs control
# Source text: as §1, §2
smiles,measurement,setting,value
"Nc1ncn([C@@H]2O[C@H](CO)[C@@H](O)[C@H]2O)c(=O)n1 [Aza-C, 5-Aza-cytadine]",levels of Wnt5a protein,[1],significant increase
same,levels of Wnt5a mRNA,Wnt5a mRNA in PEO1 cells,significant increase
